How the values were obtained:
endometriotic cells = assay: Suppression of growth and inflammation of endometriotic cells; assay type: cell-based; conditions: used alone
[1] = test system: YHES cells pretreated with H2O2; assay: H2O2-induced cell proliferation, MTT assay; assay type: cell-based, human; conditions: H2O2 1 μM, 48 hours; for suppression of H2O2-induced cell proliferation: vs H2O2 only
Procedure: MTT assay was performed after 48 hours of treatment.
(§1) The YHES cells were harvested by trypsinization and seeded in 96-well plate at ˜1×10^4 cells/well. The cells were allowed to attach to the plate for overnight at 37° C. with 5% C02 in a humidified incubator. Then they were pretreated with physiological concentration of E2 (10^-9M) and P (10^-7M) for 24 hr to maintain hormonal responsiveness. […] Cell growth was valuated by the MTT assay (ATCC, Manassas, Va.). MTT assay was performing according to the manufacturer's instructions, and in triplicate to generate mean values. Cell numbers in the untreated control were arbitrarily assigned as 1. The relative cell growth was expressed as fold increase/decrease relative to the control. Data were presented as mean values from three independently repeated experiments.
The addition of H202 was meant to mimic the oxidative stress as reported in endometriosis. […] RU486 suppressed cell proliferation by 75% at the concentration of 100 μM.

PR-A = PR-A mRNA expression by RT-PCR in treated YHES cells; assay type: cell-based, human; conditions: 8 h, 18 h and 36 h; TSA 10 μM, CDB 100 μM, NAC 10 mM; semi-quantitative RT-PCR
Procedure: (§2) The YHES cells were harvested by trypsinization and seeded in 12-well at 5×10^4 cells/well plates and were pretreated with E2 and P as described above. […] Total RNA was isolated from treated cells using TRIzol reagent (Invitrogen, Carlsbad, Calif.) according to the manufacturer's instructions. The integrity of total RNA was inspected on an agarose gel. One microgram of total RNA from each sample was treated with DNase I to remove potential DNA contamination and then reverse-transcribed using Superscript II Reverse Transcriptase (Invitrogen). First-strand cDNA obtained from RNA samples was stored at −80° C. until use. To measure the mRNA expression levels of AR, PR-A, PR-B, Fas and FasL in each cell culture, semi-quantitative PCR analysis was performed.
(§3) Quantitative real-time RT-PCR was carried out on an ABI 7900 DNA sequencer (Applied Biosystems), and monitored by SYBR Green I (Qiagen, Valencia, Calif.). The PCR products of the expected size were visualized on a 0.8% agarose gel. The relative mRNA level of each gene was calculated using relative quantitation of gene expression (Applied Biosystems, Foster City, Calif.) with 18s as an endogenous control. The reproducibility of the quantitative measurements was evaluated by two independent cDNA syntheses. The means and standard deviations of the replicated measurements were calculated and presented as mean ±s.d.

AR [2] = assay: Western blot of AR protein in treated YHES cells; assay type: cell-based, human; conditions: 16 hrs; TSA 10 μM, CDB 100 μM, NAC 10 mM
Procedure: Western blot analysis was performed to measure protein expression of β-actin, ERα, ERβ, and AR. […] Whole cell lysate was prepared as previously described (44) by using RIPA lysis buffer containing 50 mM Tris, pH 7.4, 150 mM NaCl, 12 mM EDTA, 1% Triton X-100, 0.5% sodium deoxycholate, and 0.1% SDS. To avoid degradation, a protease inhibitor cocktail III (Sigma) was added at 2%. Total protein was quantified using a BCA protein assay kit (Pierce, Rockford, Ill.). Ten microgram of total protein was separated by electrophoresis on 10% SDS-polyacrylamide gels. The protein was then transferred onto PVDF membranes (Milipore, Bedford, Mass.). […] The blot was then subsequently incubated with primary antibody rabbit anti-human ERα (Santa Cruz Biotechnology, CA), rabbit anti-human ERβ (Zymed Laboratories, South San Francisco, Calif.), rabbit anti-β-actin (Cell Signaling Technology, Beverly, Mass.), or rabbit ant-human AR (Santa Cruz Biotechnology, CA), respectively, in blocking solution (5% nonfat dry milk plus PBS) for 2 hr at room temperature. After washing with PBS plus 0.5% Tween-20, the membranes were then incubated with the secondary antibody goat anti-rabbit IgG (H+L)-HRP (Santa Cruz Biotechnology, CA) at 1:8000 dilution in blocking solution for 2 h at room temperature. […]

PR-B = PR-B mRNA expression by RT-PCR in treated YHES cells; assay type: cell-based, human; conditions: 8 h, 18 h and 36 h; TSA 10 μM, CDB 100 μM, NAC 10 mM; semi-quantitative RT-PCR
Procedure: as §2, §3

YHES cells = assay: Long-term culture and morphology after treatment; assay type: cell-based, human; conditions: for recovery judged by morphology: four weeks after the treatment, TSA and RU486 at 100 μM
Excerpt: The micrographs of the first two rows were taken using 20× magnification, and those of the third row were taken using 10× magnification. The micrographs of the first row and the first two micrographs of second row were obtained using differential inference contrast (DIC) optic; the others were obtained without the DIC optic. […]

[3] = test system: YHES cells (immortalized human endometrial stromal cell line); assay: MTT cell proliferation assay in YHES cells; assay type: cell-based; conditions: 48 hr; for increased cell proliferation: E2 and P pretreated, vs control
Procedure: An immortalized human endometrial stromal cell line was maintained following Krikun et al. (Krikun et al. 2004 Endocrinology 145:2291-6). Cells were maintained in phenol red-free DMEM/F12 (Gibco, CA) medium supplemented with 10% charcoal-dextran stripped FBS (Biomeda, CA), 1 μl/ml sodium pyruvate (Gibco, CA) and 1× Pen/Strep/Fungizone (Gibco, CA), at 37° C. with 5% C02 in a humidified incubator.
as §1

Fas = Fas mRNA expression by RT-PCR in treated YHES cells; assay type: cell-based, human
Procedure: as §2, §3

AR [4] = assay: AR mRNA expression by RT-PCR in treated YHES cells; assay type: cell-based, human; conditions: for AR mRNA expression level vs untreated control: 8 h, 18 h and 36 h, TSA 10 μM, CDB 100 μM, NAC 10 mM, semi-quantitative RT-PCR; for AR expression: 36 h of treatment, real-time RT-PCR
Procedure: as §2, §3

[5] = test system: endometrial stromal cells; conditions: in vitro; cited from earlier work
[6] = test system: patients diagnosed with adenomyosis; assay: Pilot study of off-label valproic acid in adenomyosis; assay type: in vivo, human; conditions: for relief of dysmenorrhea reported by patients: 3 patients
Excerpt: After informed consent, we recruited three patients diagnosed with adenomyosis (FIG. 28). All three patients had moderate to severe dysmenorrehea. They were all married and parous, and had normal menstrual cycles (28-30 days). […] During the recruitment, all patients were offered the option of hysterectomy or the chance to try an experimental drug. They all chose to try the drug and were all given the full explanation of the experimental nature of this study and possible risks associated with it. Approval for this pilot study was obtained from the local ethics committee at Shanghai OB/GYN Hospital, Fudan University. The diagnosis of adenomyosis of all three patients was made based on symptomology, pelvic examination and vaginal ultrasound evaluation by experienced physicians (FIG. 28). […] The treatment was terminated at the end of the 3rd month after taking the drug and the patients were followed up for an additional 3 months. During treatment, clinical signs, symptoms and ultrasound evaluation were closely monitored. Blood counts and biochemistries including liver function tests, ammonium and coagulation studies were performed monthly.

[7] = Pilot study: safety, tolerability and laboratory monitoring; assay type: in vivo, human
Excerpt: The diagnosis of adenomyosis of all three patients was made based on symptomology, pelvic examination and vaginal ultrasound evaluation by experienced physicians (FIG. 28). […] The treatment was terminated at the end of the 3rd month after taking the drug and the patients were followed up for an additional 3 months. During treatment, clinical signs, symptoms and ultrasound evaluation were closely monitored. Blood counts and biochemistries including liver function tests, ammonium and coagulation studies were performed monthly.

endometrial cells = conditions: immortalized human endometrial stromal cells; cited from earlier work
[8] = 18 and 36 h after the treatment

## Nc1ncn([C@@H]2O[C@H](CO)[C@@H](O)[C@H]2O)c(=O)n1 [5-azacytidine]
Endometriotic cells
  effect of use alone on growth and inflammation: some effect in suppression of growth (but not inflammation)

## CC(=O)O[C@]1(C(C)=O)CC[C@H]2[C@@H]3CCC4=CC(=O)CCC4=C3[C@@H](c3ccc(N(C)C)cc3)C[C@@]21C [CDB, CDB-2914]
[1]; 100 μM
  suppression of H2O2-induced cell proliferation: 49%
PR-A
  PR-A mRNA expression level vs untreated control: increased
AR [2]
  AR protein level vs control group: increased
PR-B
  PR-B mRNA expression level vs untreated control: increased
YHES cells; 24 h after the treatment
  cell morphology: signs of apparent apoptosis
YHES cells
  recovery judged by morphology: apparently recovered
[3]; 10 μM or lower (10, 1, 0.1 μM)
  effect on cell proliferation: statistically non-significant inhibition of cell proliferation
[3]; 100 μM (highest concentration)
  effect on cell proliferation: significant suppression of cell proliferation
Fas; [8]
  Fas expression: decreased
Fas; 8 h after the treatment
  Fas expression: increased
AR [4]
  AR mRNA expression level vs untreated control: increased
  AR expression: maintained the increased expression

## OO [H2O2]
[3]; 1 μM
  increased cell proliferation: 18%
[3]; 10 μM
  increased cell proliferation: 22%
[3]; 100 μM (highest concentration)
  effect on cell proliferation: induced inhibition of proliferation

## C[C@]12CC[C@@H]3c4ccc(O)cc4C[C@@H](CCCCCCCCC[S+]([O-])CCCC(F)(F)C(F)(F)F)[C@H]3[C@@H]1CC[C@@H]2O (stereo partly shown) [ICI, ICI 182780]
[1]; 100 μM
  effect on H2O2-induced cell proliferation: did not significantly inhibit
[3]; 0.1 μM
  increase in proliferation as compared with the control group: about 40%
[3]; across 100, 10, 1, 0.1 μM
  effect on cell proliferation: no statistically significant reduction in proliferation

## CC(=O)N[C@@H](CS)C(=O)O [NAC, N-acetylcysteine]
[1]; 10 mM
  suppression of H2O2-induced cell proliferation: 63%
PR-A
  PR-A mRNA expression level vs untreated control: increased
PR-B
  PR-B mRNA expression level vs untreated control: increased
YHES cells
  recovery judged by morphology: apparently recovered
[3]; 10 mM
  suppression of proliferation: 35%
[3]; 30 mM
  suppression of proliferation: 50%
Fas; [8]
  Fas expression: decreased
Fas; 8 h after the treatment
  Fas expression: increased
AR [4]
  AR mRNA expression level vs untreated control: increased
  AR expression: maintained the increased expression

## CC#C[C@]1(O)CC[C@H]2[C@@H]3CCC4=CC(=O)CCC4=C3[C@@H](c3ccc(N(C)C)cc3)C[C@@]21C [RU486]
[1]; 100 μM
  suppression of H2O2-induced cell proliferation: 75%
[3]; 100 μM
  reduction of cell proliferation as compared with controls: > 95%

## CCCC(CCC)C(=O)O [VPA, valproic acid]
[5]
  effect on proliferation: suppressing proliferation of endometrial and endometriotic cells in vitro
[6]; end of the 3-month treatment, three patients
  average reduction of uterus size: 33%
[6]; end of the 3rd month
  uterus size by physical examination: slight reduction in uterus size in one patient but no change in the other two
[6]; one month after taking VPA
  pelvic and ultrasound examinations: no change in uterus size or other conditions
[6]; three months after taking the drug (end of treatment)
  relief of dysmenorrhea reported by patients: all three patients reported complete relief of pain without any need for pain-killers
[6]; three months after taking the drug (end of treatment), listed as valproic acid
  relief of dysmenorrhea reported by patients: all three recruited patients reported complete disappearance of dysmenorrhea
[6]; three months after the discontinuation of the treatment
  dysmenorrhea reported by patients: 2 patients reported disappearance of dysmenorrehea, but 1 reported the return of the same symptom
[6]; two months after taking VPA, oral 500 mg b.i.d. then t.i.d.
  relief of dysmenorrhea reported by patients: 2 patients reported complete relief of dysmenorrehea with no need for pain-killers, and 1 reported much relieved pain
[7]; 3-month oral VPA
  tolerability: well tolerated
[7]; end of three month after taking VPA
  serum level of testosterone vs normal range: within the normal range
[7]; monthly during treatment, all cases
  liver function and other biochemistries: remained normal
Endometrial cells
  effect on cell cycle: induce cell cycle arrest
